The text below walks through data of patent US9206173B2, “Heterocyclic compounds for the treatment of stress-related conditions” (OTSUKA PHARMACEUTICAL CO., LTD., priority 2009, dated 2015).

Experiment [1] deals with T1, human GPR10 (Homo sapiens (Human), UniProt P49683). The experiment is described as follows: Inhibitory activity on binding of [3H]-PrRP to GPR10 (HEK 293 cell membrane fraction). The settings on record: [3H]-PrRP 1 nM, human GPR10-expressing HEK 293 cell membrane fraction; Ki from IC50 by Cheng-Prussoff formula. The essentials:
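Competition with [3H]-PrRP (1 nM final) for membranes from human GPR10-expressing HEK293 cells, 90 min at room temperature in HEPES/EDTA buffer pH 7.4; filtration and scintillation counting.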

The target of experiment [2] is T1, human GPR10. Nature of the experiment: Antagonistic activity on PrRP-induced intracellular calcium mobilization in human GPR10-expressing HEK293 cells. The experiment is classed as cell-based. The settings on record: PrRP 1 nM-induced intracellular calcium mobilization, Fluo-8. How it is done: Pharmacological Test 2 Antagonistic Activity on GPR10 Using Human GPR10-Expressing HEK293 Cells.
Antagonistic activity of test compounds on PrRP-induced intracellular calcium mobilization was evaluated using GPR10-expressing HEK293 cells.
HEK293 cells expressing human GPR10 were maintained in Dulbecco's Modified Eagles' medium supplemented with 10% fetal bovine serum, 1% penicillin-streptomycin and 20 mM HEPES at 37° C. in a 5% CO2 incubator. GPR10-expressing HEK293 cells were placed in poly-D-lysine coated 96-well culture plates and cultured for 18-24 hr before the test at a density of 3×10^4 cells/well. […] The cells were incubated with test compounds for 15 min at room temperature, and then PrRP (the final concentration, 1 nM) was added into the medium. The changes in intracellular calcium-dependent fluorescence were monitored using a fluorescence imaging plate reader (FDSS3000, Hamamatsu Photonics K.K.). Fluo-8 fluorescence was measured with excitation at 490 nm and emission at 520 nm. The calcium-dependent fluorescence intensity was calculated by subtracting basal intensity (average intensity for 30 sec before agonist stimulation) from peak intensity for 60 sec after PrRP-stimulation, and then IC50 values were determined by nonlinear curve-fitting program, GraphPad Prism 5.

Where a name gives a salt, the structure may show the parent alone.

T1 sequence (P49683 whole entry): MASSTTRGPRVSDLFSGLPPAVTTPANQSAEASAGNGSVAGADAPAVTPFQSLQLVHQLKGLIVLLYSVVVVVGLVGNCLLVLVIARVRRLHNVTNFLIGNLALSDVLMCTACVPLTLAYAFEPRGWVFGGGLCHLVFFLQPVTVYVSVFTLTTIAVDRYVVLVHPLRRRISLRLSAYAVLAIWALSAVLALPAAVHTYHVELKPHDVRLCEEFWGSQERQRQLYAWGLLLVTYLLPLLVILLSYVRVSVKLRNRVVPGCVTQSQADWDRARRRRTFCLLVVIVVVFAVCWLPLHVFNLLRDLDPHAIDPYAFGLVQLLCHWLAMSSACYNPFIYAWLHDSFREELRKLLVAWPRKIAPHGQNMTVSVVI

The compound `COn1c(N[C@@H](C)c2ccc(Cl)cc2)nc2c(c1=O)CN(C(=O)COc1ccc(Cl)cc1)CC2` [Example 2430, 6-[2-(4-chlorophenoxy)acetyl]-2-[(S)-1-(4-chlorophenyl)ethylamino]-3-methoxy-5,6,7,8-tetrahydro-3H-pyrido[4,3-d]pyrimidin-4-one] had a Ki in experiment [1] of 15 nM. In experiment [2], the IC50 stood at 1180 nM.

On to `CCOn1c(N[C@H](C)c2ccc(C(F)(F)F)cc2)nc2c(c1=O)CN(C(=O)c1cc3cccnc3s1)CC2` [Example 121], for which, in experiment [1], the Ki is 17 nM. The IC50 in experiment [2] is 1680 nM.

On to `C#CCn1c(N[C@@H](C)c2ccc(C(F)(F)F)cc2)nc2c(c1=O)CN(C(=O)c1ccc(Cl)cc1)CC2` [Example 2, 6-(4-chlorobenzoyl)-3-propargyl-2-(S)-{1-[4-(trifluoromethyl)phenyl]ethylamino}-5,6,7,8-tetrahydropyrido[4,3-d]pyrimidin-4-(3H)-one hydrochloride], for which, in experiment [1], the Ki stood at 29 nM. Also, the concentration for half-maximal inhibition (IC50) in experiment [2] worked out at 378 nM.

For `COn1c(N[C@@H](C)c2ccc(Cl)cc2)nc2c(c1=O)CN(C(=O)c1ccc(Cl)cc1)CC2` [Example 9, 6-(4-chlorobenzoyl)-3-methoxy-2-(S)-[1-(4-chlorophenyl)ethylamino]-5,6,7,8-tetrahydropyrido[4,3-d]pyrimidin-4-(3H)-one], the Ki in experiment [1] is 28 nM. In addition, the IC50 in experiment [2] stood at 204 nM.

As to `CC#CCn1c(N[C@@H](C)c2ccc(C(F)(F)F)cc2)nc2c(c1=O)CN(C(=O)c1ccc3c(c1)CCC(=O)N3)CC2` [Example 2412, 3-(2-butynyl)-6-(2-oxo-1,2,3,4-tetrahydro-quinoline-6-carbonyl)-2-[(S)-1-(4-trifluoromethylphenyl)ethylamino]-5,6,7,8-tetrahydro-3H-pyrido[4,3-d]pyrimidin-4-one hydrochloride], the inhibition constant Ki in experiment [1] came out at 8 nM. The 50% inhibitory concentration (IC50) in experiment [2] came out at 259 nM.

Turning to `COn1c(N[C@@H](C)c2ccc(C(F)(F)F)cc2)nc2c(c1=O)CN(C(=O)CSc1ccc(Cl)cc1)CC2` [Example 2390, 6-[2-(4-chlorophenylsulfanyl)acetyl]-3-methoxy-2-[(S)-1-(4-trifluoromethylphenyl)ethylamino]-5,6,7,8-tetrahydro-3H-pyrido[4,3-d]pyrimidin-4-one], the Ki in experiment [1] amounted to 8 nM. Further, the IC50 in experiment [2] was found to be 1140 nM.

The compound `CC#CCn1c(N[C@@H](C)c2ccc(C(F)(F)F)cc2)nc2c(c1=O)CN(C(=O)c1ccc(C#N)cc1)CC2` [Example 2407, 4-{3-(2-butynyl)-4-oxo-2-[(S)-1-(4-trifluoromethylphenyl)ethylamino]-3,5,7,8-tetrahydro-4H-pyrido[4,3-d]pyrimidine-6-carbonyl}benzonitrile hydrochloride] had a Ki in experiment [1] of 8 nM. Moreover, the IC50 in experiment [2] is 207 nM.

In experiment [1], `COn1c(NC(c2ccc(Cl)cc2)C(C)C)nc2c(c1=O)CN(C(=O)c1ccc(Cl)cc1)CC2` (stereo not drawn) [Example 2441, 6-(4-chlorobenzoyl)-2-[1-(4-chlorophenyl)-2-methylpropylamino]-3-methoxy-5,6,7,8-tetrahydro-3H-pyrido[4,3-d]pyrimidin-4-one] returned a Ki of 37 nM. The IC50 in experiment [2] amounted to 4490 nM.

On to `C[C@H](Nc1nc2c(c(=O)n1N1CCOCC1)CN(C(=O)c1ccc(C#N)cc1F)CC2)c1ccc(C(F)(F)F)cc1` [Example 2463, 3-fluoro-4-{3-morpholin-4-yl-4-oxo-2-[(S)-1-(4-trifluoromethylphenyl)ethylamino]-3,5,7,8-tetrahydro-4H-pyrido[4,3-d]pyrimidine-6-carbonyl}benzonitrile hydrochloride], for which, in experiment [1], the affinity corresponds to a Ki of 3 nM. Moreover, in experiment [2], the IC50 was 187 nM.

Compound `CC#CCn1c(N[C@@H](C)c2ccc(C(F)(F)F)cc2)nc2c(c1=O)CN(C(=O)c1ccc(C#N)cc1F)CC2` [Example 2406, 4-{3-(2-butynyl)-4-oxo-2-[(S)-1-(4-trifluoromethylphenyl)ethylamino]-3,5,7,8-tetrahydro-4H-pyrido[4,3-d]pyrimidine-6-carbonyl}-3-fluorobenzonitrile hydrochloride] yielded a Ki in experiment [1] of 2 nM. For the same compound, the IC50 in experiment [2] was determined as 78 nM.

`C#CCn1c(N[C@@H](C)c2ccc(Cl)cc2)nc2c(c1=O)CN(C(=O)c1ccc(Cl)cc1)CC2` [Example 3, 6-(4-chlorobenzoyl)-3-propargyl-2-(S)-{1-[4-chlorophenyl]ethylamino}-5,6,7,8-tetrahydropyrido[4,3-d]pyrimidin-4-(3H)-one] gave a Ki in experiment [1] of 42 nM. For the same compound, in experiment [2], the IC50 turned out to be 1720 nM.

On to `CC#CCn1c(N[C@@H](C)c2ccc(C(F)(F)F)cc2)nc2c(c1=O)CN(C(=O)c1ccc(-n3ccnc3)cc1)CC2` [Example 2402, 3-(2-butynyl)-6-(4-imidazol-1-ylbenzoyl)-2-[(S)-1-(4-trifluoromethylphenyl)ethylamino]-5,6,7,8-tetrahydro-3H-pyrido[4,3-d]pyrimidin-4-one dihydrochloride], for which the inhibition constant Ki in experiment [1] was found to be 6 nM. In experiment [2], the IC50 amounted to 99 nM.

With `CC#CCn1c(N[C@@H](C)c2ccc(C(F)(F)F)cc2)nc2c(c1=O)CN(C(=O)c1ccc3ccccc3n1)CC2` [Example 2449, 3-(2-butynyl)-6-(quinoline-2-carbonyl)-2-[(S)-1-(4-trifluoromethylphenyl)ethylamino]-5,6,7,8-tetrahydro-3H-pyrido[4,3-d]pyrimidin-4-one], in experiment [1], the Ki is 24 nM. Moreover, the IC50 in experiment [2] was determined as 3350 nM.

Compound `C[C@H](Nc1nc2c(c(=O)n1N(C)C)CN(C(=O)c1ccc(C#N)cc1F)CC2)c1ccc(C(F)(F)F)cc1` [Example 5, 6-(4-cyano-2-fluorobenzoyl)-3-dimethylamino-2-(S)-{1-[4-(trifluoromethyl)phenyl]ethylamino}-5,6,7,8-tetrahydropyrido[4,3-d]pyrimidin-4-(3H)-one hydrochloride] showed a Ki in experiment [1] of 8 nM. The IC50 in experiment [2] was 46 nM.

On to `COn1c(N[C@@H](C)c2ccc(C(F)(F)F)cc2)nc2c(c1=O)CN(C(=O)c1ccc(Cl)cc1)CC2` [Example 10, 6-(4-chlorobenzoyl)-3-methoxy-2-(S)-{1-[4-(trifluoromethyl)phenyl]ethylamino}-5,6,7,8-tetrahydropyrido[4,3-d]pyrimidin-4-(3H)-one hydrochloride], for which the Ki in experiment [1] came out at 17 nM. Moreover, the half-inhibitory concentration (IC50) in experiment [2] turned out to be 140 nM.

`COn1c(N[C@@H](C)c2ccc(C(F)(F)F)cc2)nc2c(c1=O)CN(C(=O)CCc1ccc(Cl)cc1)CC2` [Example 2391, 6-[3-(4-chlorophenyl)propionyl]-3-methoxy-2-[(S)-1-(4-trifluoromethylphenyl)ethylamino]-5,6,7,8-tetrahydro-3H-pyrido[4,3-d]pyrimidin-4-one] returned a Ki in experiment [1] of 134 nM. In addition, in experiment [2], the IC50 came to 3900 nM.

Consider `COn1c(N[C@@H](C)c2ccc(C(F)(F)F)cc2)nc2c(c1=O)CN(C(=O)c1ccc(OC(F)(F)F)cc1)CC2` [Example 63], for which the Ki in experiment [1] was 16 nM. Further, in experiment [2], the IC50 came out at 686 nM.

With `C#CCCn1c(N[C@@H](C)c2ccc(C(F)(F)F)cc2)nc2c(c1=O)CN(C(=O)c1ccc(C#N)cc1)CC2` [Example 2433, 4-{3-(3-butynyl)-4-oxo-2-[(S)-1-(4-trifluoromethylphenyl)ethylamino]-3,5,7,8-tetrahydro-4H-pyrido[4,3-d]pyrimidine-6-carbonyl}benzonitrile], in experiment [1], the Ki turned out to be 5 nM. In addition, the IC50 in experiment [2] was 62 nM.
